From patent US7589213B2 (priority 2007, dated 2009)

Tests used:
hTP = molecular target: T1, hTP (Homo sapiens, UniProt P21731); experiment: Other receptors functional EC50, hTP; assay type: cell-based
T1 sequence (P21731 1-343): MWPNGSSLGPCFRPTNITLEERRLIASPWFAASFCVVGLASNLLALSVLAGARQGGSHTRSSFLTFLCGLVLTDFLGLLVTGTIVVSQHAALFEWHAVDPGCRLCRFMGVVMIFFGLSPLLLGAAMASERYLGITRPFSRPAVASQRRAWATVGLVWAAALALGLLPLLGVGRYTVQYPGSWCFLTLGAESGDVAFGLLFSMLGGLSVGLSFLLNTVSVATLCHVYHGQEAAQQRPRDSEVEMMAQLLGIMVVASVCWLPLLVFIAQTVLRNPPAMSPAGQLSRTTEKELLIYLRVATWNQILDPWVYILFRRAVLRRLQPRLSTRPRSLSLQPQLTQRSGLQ
Description: (§1) U.S. patent application Ser. No. 11/553,143, filed on Oct. 26, 2006, incorporated by reference herein, describes the methods used to obtain the in vitro data in the table below.

hFP = hFP (Homo sapiens, UniProt P43088); experiment: Other receptors functional EC50, hFP; assay type: cell-based
Description: as §1

EP2 [1] = molecular target: T2, EP2 (Homo sapiens, UniProt P43116); experiment: EP2 cAMP assay; assay type: cell-based
Description: as §1

EP2 [2] = molecular target: T2, EP2; experiment: EP2 flipr assay; assay type: cell-based
Description: as §1

EP2 [3] = molecular target: T2, EP2; experiment: EP2 binding (Ki)
Description: as §1

hDP = molecular target: T3, hDP (Homo sapiens, UniProt Q13258); experiment: Other receptors functional EC50, hDP; assay type: cell-based
T3 sequence (Q13258 1-359): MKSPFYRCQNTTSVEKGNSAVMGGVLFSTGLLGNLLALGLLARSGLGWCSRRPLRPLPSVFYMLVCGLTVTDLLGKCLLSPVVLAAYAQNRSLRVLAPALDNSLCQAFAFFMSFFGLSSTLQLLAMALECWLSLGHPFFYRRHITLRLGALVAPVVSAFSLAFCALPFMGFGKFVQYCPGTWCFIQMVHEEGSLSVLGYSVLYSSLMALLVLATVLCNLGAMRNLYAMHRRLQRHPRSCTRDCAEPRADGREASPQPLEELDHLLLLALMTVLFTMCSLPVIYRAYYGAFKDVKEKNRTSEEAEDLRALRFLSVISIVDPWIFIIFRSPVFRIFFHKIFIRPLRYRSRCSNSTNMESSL
Description: as §1

T2 sequence (P43116 whole entry): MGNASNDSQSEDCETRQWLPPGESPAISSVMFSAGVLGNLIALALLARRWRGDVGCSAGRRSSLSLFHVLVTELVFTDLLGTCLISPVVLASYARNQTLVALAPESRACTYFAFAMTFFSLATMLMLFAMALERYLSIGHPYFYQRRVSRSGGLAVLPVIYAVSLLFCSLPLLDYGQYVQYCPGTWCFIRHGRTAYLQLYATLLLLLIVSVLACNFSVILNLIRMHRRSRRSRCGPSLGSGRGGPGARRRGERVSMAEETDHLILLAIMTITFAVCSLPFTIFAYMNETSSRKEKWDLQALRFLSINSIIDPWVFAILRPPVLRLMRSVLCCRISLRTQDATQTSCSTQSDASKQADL
Sequence of hFP (P43088 whole entry): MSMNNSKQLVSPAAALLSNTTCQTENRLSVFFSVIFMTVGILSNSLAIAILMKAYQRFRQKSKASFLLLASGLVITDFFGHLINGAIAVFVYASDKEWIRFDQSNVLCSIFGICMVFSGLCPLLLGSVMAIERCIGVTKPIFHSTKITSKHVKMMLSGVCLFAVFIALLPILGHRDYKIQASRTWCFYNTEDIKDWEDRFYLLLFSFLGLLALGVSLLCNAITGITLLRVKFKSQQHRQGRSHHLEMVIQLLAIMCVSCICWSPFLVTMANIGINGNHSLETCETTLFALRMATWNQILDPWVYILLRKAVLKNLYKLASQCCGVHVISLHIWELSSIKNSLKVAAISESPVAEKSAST

O=C(O)c1ccc(COC[C@H]2CCC(=O)N2c2ccc(-c3nccs3)cc2)s1 [compound 58, (R)-5-(((5-oxo-1-(4-(thiazol-2-yl)phenyl)pyrrolidin-2-yl)methoxy)methyl)thiophene-2-carboxylic acid]
EC50 (hTP): > 10000 nM | EC50 (hFP): > 10000 nM | EC50 (EP2 [1]): 0.038 µM | EC50 (EP2 [2]): 5.89 µM | Ki (EP2 [3]): 0.215 µM | EC50 (hDP): 4640 nM
